# Test results published in the kinase profiling compilation of Christmann-Franck et al. (2016).
# Experiments:
# Test in all cases: KINOMEscan competition binding
# Conditions in all cases: compound 0.1 µM
# [1] = system: ABL1 (human), P00519 [Q252H]
# ACVR1 (human) = ACVR1 (human) (UniProt Q04771)
# BMP2K (human) = BMP2K (human) (UniProt Q9NSY1)
# CDK19 (human) = CDK19 (human) (UniProt Q9BWU1)
# CDKL3 (human) = CDKL3 (human) (UniProt Q8IVW4)
# CLK3 (human) = CLK3 (human) (UniProt P49761)
# DSTYK (human) = DSTYK (human) (UniProt Q6XUX3)
# DYRK1B (human) = DYRK1B (human) (UniProt Q9Y463)
# Chain of DYRK1B (human) (Q9Y463 whole entry, looked up): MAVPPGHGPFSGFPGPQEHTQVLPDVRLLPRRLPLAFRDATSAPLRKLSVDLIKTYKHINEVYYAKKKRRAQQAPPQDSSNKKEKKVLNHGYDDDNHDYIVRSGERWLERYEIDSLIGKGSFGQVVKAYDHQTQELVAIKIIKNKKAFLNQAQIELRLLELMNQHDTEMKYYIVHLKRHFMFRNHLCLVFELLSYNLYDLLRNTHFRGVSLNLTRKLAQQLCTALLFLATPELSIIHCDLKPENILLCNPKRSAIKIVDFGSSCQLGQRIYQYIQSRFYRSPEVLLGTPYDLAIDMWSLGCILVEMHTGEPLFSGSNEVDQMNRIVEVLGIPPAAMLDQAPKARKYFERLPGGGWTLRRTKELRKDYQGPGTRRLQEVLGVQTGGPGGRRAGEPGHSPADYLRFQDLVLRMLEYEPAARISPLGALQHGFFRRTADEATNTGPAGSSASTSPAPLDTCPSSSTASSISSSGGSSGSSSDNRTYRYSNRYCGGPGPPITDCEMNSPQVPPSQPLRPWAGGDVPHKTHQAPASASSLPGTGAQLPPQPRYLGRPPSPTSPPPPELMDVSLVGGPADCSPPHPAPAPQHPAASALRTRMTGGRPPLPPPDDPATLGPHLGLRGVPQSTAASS
# EGFR (human) = EGFR (human) (UniProt P00533)
# [2] = system: EGFR (human), P00533 [L858R]
# [3] = system: EGFR (human), P00533 [T790M]
# EIF2AK1 (human) = EIF2AK1 (human) (UniProt Q9BQI3)
# EPHA3 (human) = EPHA3 (human) (UniProt P29320)
# FLT4 (human) = FLT4 (human) (UniProt P35916)
# HIPK3 (human) = HIPK3 (human) (UniProt Q9H422)
# IRAK4 (human) = IRAK4 (human) (UniProt Q9NWZ3)
# [4] = biological target: JAK2 JH1 catalytic (human) (UniProt O60674)
# MAP2K6 (human) = MAP2K6 (human) (UniProt P52564)
# Chain of MAP2K6 (human) (P52564 whole entry, looked up): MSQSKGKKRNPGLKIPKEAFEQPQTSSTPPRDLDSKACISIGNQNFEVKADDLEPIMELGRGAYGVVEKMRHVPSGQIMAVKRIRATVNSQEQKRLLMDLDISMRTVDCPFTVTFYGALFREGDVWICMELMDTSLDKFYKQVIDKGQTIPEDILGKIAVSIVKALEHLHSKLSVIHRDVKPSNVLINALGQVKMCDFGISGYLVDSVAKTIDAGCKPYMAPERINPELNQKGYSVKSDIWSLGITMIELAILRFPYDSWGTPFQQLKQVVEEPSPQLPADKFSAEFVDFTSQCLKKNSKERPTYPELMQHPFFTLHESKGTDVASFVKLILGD
# MAP3K9 (human) = MAP3K9 (human) (UniProt P80192)
# MAP4K4 (human) = MAP4K4 (human) (UniProt O95819)
# MAPK3 (human) = MAPK3 (human) (UniProt P27361)
# Chain of MAPK3 (human) (P27361 whole entry, looked up): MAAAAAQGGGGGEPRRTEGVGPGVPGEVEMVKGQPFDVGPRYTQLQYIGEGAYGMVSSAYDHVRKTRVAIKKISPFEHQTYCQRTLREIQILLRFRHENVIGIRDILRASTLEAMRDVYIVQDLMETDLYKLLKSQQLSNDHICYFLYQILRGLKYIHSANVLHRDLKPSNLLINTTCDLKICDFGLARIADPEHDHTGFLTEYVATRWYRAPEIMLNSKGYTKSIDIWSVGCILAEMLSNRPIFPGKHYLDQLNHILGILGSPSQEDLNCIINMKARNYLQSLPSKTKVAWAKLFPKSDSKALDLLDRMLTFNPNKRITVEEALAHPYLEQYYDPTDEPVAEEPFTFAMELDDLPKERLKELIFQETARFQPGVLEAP
# MAPKAPK2 (human) = MAPKAPK2 (human) (UniProt P49137)
# MAST1 (human) = MAST1 (human) (UniProt Q9Y2H9)
# Chain of MAST1 (human) (Q9Y2H9 whole entry, looked up): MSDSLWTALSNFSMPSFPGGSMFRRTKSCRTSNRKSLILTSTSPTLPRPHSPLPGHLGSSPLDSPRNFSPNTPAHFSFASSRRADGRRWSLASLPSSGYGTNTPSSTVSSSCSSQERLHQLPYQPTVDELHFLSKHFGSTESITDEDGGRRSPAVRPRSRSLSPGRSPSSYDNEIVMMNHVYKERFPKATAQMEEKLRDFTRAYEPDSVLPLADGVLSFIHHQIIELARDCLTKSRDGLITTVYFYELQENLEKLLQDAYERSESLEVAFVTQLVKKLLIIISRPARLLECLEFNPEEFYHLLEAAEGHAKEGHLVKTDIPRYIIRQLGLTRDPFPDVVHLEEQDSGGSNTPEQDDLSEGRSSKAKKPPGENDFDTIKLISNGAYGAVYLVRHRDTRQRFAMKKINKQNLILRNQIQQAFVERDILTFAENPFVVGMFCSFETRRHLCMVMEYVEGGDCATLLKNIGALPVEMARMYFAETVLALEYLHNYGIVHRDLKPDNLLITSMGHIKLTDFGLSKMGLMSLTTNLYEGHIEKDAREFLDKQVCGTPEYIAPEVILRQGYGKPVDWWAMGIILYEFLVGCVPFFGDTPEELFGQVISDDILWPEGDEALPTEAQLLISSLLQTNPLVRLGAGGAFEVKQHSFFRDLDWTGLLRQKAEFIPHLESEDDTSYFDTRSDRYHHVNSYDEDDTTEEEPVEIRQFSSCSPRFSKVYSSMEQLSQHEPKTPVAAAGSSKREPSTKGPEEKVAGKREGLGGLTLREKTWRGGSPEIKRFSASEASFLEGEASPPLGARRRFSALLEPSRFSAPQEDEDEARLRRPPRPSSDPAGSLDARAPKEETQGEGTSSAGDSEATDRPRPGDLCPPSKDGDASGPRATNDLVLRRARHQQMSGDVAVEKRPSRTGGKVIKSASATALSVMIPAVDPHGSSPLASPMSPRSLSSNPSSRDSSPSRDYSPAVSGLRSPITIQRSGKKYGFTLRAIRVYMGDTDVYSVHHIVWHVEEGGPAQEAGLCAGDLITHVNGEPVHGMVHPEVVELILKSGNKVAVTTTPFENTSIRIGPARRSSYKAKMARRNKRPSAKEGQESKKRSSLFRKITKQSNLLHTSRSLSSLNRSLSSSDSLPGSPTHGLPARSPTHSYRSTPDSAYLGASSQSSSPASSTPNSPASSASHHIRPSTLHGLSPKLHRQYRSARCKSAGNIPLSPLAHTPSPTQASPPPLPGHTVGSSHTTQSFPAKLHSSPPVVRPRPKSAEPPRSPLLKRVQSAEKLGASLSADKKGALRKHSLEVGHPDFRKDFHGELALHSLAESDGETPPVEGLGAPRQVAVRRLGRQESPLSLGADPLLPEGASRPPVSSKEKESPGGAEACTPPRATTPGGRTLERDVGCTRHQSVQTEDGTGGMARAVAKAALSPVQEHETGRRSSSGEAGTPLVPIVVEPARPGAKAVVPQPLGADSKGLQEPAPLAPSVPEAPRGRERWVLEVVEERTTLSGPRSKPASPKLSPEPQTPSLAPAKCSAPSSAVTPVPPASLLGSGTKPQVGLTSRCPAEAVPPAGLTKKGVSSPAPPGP
# MYLK3 (human) = MYLK3 (human) (UniProt Q32MK0)
# NLK (human) = NLK (human) (UniProt Q9UBE8)
# [5] = system: PIK3CA (human), P42336 [C420R]
# PIM1 (human) = PIM1 (human) (UniProt P11309)
# Chain of PIM1 (human) (P11309 whole entry, looked up): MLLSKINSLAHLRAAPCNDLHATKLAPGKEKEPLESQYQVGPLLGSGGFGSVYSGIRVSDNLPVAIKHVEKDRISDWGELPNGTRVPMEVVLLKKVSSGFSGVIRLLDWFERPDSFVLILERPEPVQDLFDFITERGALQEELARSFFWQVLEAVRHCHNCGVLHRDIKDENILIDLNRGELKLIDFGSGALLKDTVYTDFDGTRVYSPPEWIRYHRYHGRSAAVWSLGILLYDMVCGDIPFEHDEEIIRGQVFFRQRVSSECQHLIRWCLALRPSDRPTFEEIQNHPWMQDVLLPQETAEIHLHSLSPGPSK
# PIM3 (human) = PIM3 (human) (UniProt Q86V86)
# PRKCD (human) = PRKCD (human) (UniProt Q05655)
# SIK2 (human) = SIK2 (human) (UniProt Q9H0K1)
# SRPK3 (human) = SRPK3 (human) (UniProt Q9UPE1)
# STK17A (human) = STK17A (human) (UniProt Q9UEE5)
# STK32C (human) = STK32C (human) (UniProt Q86UX6)
# TESK1 (human) = TESK1 (human) (UniProt Q15569)
# Chain of TESK1 (human) (Q15569 whole entry, looked up): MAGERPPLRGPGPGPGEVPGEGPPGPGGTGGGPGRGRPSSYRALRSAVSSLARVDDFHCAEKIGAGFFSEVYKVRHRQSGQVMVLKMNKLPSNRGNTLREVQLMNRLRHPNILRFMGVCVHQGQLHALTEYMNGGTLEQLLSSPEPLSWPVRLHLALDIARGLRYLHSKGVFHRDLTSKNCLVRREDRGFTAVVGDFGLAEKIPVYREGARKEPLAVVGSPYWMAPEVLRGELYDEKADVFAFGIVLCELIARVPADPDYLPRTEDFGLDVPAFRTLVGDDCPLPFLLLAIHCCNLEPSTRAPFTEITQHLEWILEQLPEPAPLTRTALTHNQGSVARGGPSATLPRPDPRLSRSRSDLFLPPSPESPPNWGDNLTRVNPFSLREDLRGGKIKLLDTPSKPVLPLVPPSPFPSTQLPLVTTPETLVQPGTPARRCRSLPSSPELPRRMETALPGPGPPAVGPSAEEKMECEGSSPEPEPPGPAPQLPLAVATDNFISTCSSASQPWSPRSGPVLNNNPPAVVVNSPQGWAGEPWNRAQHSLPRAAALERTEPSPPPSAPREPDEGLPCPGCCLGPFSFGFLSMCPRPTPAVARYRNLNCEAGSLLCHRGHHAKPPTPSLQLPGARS
# TIE1 (human) = TIE1 (human) (UniProt P35590)
# TXK (human) = TXK (human) (UniProt P42681)
# [6] = biological target: TYK2 JH1 catalytic (human) (UniProt P29597)
# Chain of TYK2 JH1 catalytic (human) (P29597 whole entry, looked up): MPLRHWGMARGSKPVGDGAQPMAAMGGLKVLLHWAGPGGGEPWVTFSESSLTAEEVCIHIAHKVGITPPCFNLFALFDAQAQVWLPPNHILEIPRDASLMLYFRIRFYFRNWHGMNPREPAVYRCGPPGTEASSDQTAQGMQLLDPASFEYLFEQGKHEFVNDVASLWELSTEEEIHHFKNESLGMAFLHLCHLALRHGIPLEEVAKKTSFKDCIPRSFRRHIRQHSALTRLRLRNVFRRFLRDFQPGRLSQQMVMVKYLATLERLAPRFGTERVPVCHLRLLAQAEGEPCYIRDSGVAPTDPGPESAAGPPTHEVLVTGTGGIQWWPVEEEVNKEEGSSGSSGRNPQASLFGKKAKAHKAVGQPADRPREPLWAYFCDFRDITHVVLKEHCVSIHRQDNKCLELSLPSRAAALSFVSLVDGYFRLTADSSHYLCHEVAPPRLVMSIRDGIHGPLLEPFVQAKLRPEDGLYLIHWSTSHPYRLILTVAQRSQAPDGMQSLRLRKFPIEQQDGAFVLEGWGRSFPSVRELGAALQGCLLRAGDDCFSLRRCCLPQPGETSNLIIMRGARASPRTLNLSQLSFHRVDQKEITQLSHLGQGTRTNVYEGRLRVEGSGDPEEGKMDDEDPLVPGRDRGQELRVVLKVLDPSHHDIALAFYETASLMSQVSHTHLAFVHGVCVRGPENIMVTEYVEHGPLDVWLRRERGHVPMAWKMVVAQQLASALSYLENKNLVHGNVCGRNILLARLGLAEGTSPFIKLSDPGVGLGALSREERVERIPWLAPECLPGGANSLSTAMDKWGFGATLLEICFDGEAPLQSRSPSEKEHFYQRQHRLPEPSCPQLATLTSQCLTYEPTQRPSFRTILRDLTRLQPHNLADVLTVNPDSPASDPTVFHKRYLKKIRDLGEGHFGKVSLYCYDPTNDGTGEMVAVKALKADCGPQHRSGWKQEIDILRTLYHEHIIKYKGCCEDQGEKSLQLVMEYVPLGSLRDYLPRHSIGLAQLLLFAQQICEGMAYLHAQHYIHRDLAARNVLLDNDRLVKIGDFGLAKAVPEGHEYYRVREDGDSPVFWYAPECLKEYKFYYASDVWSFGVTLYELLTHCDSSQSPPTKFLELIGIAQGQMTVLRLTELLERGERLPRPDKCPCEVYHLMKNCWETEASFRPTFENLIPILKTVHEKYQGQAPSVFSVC
# ULK3 (human) = ULK3 (human) (UniProt Q6PHR2)
# WEE2 (human) = WEE2 (human) (UniProt P0C1S8)
# YES1 (human) = YES1 (human) (UniProt P07947)
compound,measurement,setting,value
CCc1ccc(C(=O)Nc2cc(CN3CCN(C)CC3)cc(C(F)(F)F)c2)cc1C#Cc1cnc2ccnn2c1,"kinase still bound, per cent of control",[1],100%
same,"kinase still bound, per cent of control",ACVR1 (human),84%
same,"kinase still bound, per cent of control",BMP2K (human),86%
same,"kinase still bound, per cent of control",CDK19 (human),90%
same,"kinase still bound, per cent of control",CDKL3 (human),56%
same,"kinase still bound, per cent of control",CLK3 (human),91%
same,"kinase still bound, per cent of control",DSTYK (human),100%
same,"kinase still bound, per cent of control",DYRK1B (human),53%
same,"kinase still bound, per cent of control",EGFR (human),100%
same,"kinase still bound, per cent of control",[2],100%
same,"kinase still bound, per cent of control",[3],100%
same,"kinase still bound, per cent of control",EIF2AK1 (human),100%
same,"kinase still bound, per cent of control",EPHA3 (human),47%
same,"kinase still bound, per cent of control",FLT4 (human),85%
same,"kinase still bound, per cent of control",HIPK3 (human),100%
same,"kinase still bound, per cent of control",IRAK4 (human),100%
same,"kinase still bound, per cent of control",[4],100%
same,"kinase still bound, per cent of control",MAP2K6 (human),100%
same,"kinase still bound, per cent of control",MAP3K9 (human),100%
same,"kinase still bound, per cent of control",MAP4K4 (human),100%
same,"kinase still bound, per cent of control",MAPK3 (human),100%
same,"kinase still bound, per cent of control",MAPKAPK2 (human),100%
same,"kinase still bound, per cent of control",MAST1 (human),100%
same,"kinase still bound, per cent of control",MYLK3 (human),100%
same,"kinase still bound, per cent of control",NLK (human),45%
same,"kinase still bound, per cent of control",[5],100%
same,"kinase still bound, per cent of control",PIM1 (human),80%
same,"kinase still bound, per cent of control",PIM3 (human),77%
same,"kinase still bound, per cent of control",PRKCD (human),100%
same,"kinase still bound, per cent of control",SIK2 (human),100%
same,"kinase still bound, per cent of control",SRPK3 (human),92%
same,"kinase still bound, per cent of control",STK17A (human),100%
same,"kinase still bound, per cent of control",STK32C (human),96%
same,"kinase still bound, per cent of control",TESK1 (human),73%
same,"kinase still bound, per cent of control",TIE1 (human),51%
same,"kinase still bound, per cent of control",TXK (human),79%
same,"kinase still bound, per cent of control",[6],100%
same,"kinase still bound, per cent of control",ULK3 (human),100%
same,"kinase still bound, per cent of control",WEE2 (human),84%
same,"kinase still bound, per cent of control",YES1 (human),70%
